Laboratory results: patent publication US9952208B2, “Means and methods for bioluminescence resonance energy transfer (BRET) analysis in a biological sample” (priority 2013, dated 2018)

Tested on: DIG10.3
Assay: Binding of tethered ligand to binding protein DIG10.3

- binding to DIG10.3: binds weakly
SMILES: CC(=O)[C@H]1CC[C@H]2[C@@H]3CCC4=CC(=O)CC[C@]4(C)[C@H]3CC[C@]12C [Progesterone, progesterone]
